# Results from US20090232915A1, “MIXTURES WITH A COLLAGEN SYNTHESIS BOOSTING ACTION” (SYMRISE GmbH & Co., KG, priority 2008, published 2009).
# “And” between values parts separate entries of the source, which are not always exact repeats. Equal entries are not always repeated.
# System: normal human dermal fibroblasts (NHDF)
# Assay: Collagen synthesis boosting activity, Sirius Red staining of collagen in fibroblast monolayer (96 well)
# Assay type: cell-based
# Settings: 48 h incubation
# Description: Method for determining the collagen synthesis boosting activity of selected substances of natural or synthetic origin.
# Fibroblasts are responsible for collagen synthesis in the dermis layer of the skin. The test system involves culturing normal human dermal fibroblasts (NHDF) in a “monolayer” culture in 96 well MTPs, incubating them over a defined period with test substances and then determining the increase in collagen qualitatively by a staining method.
# The principle of the assay is based on histological, specific staining of the soluble collagen (predominantly type I and III collagen) with the assistance of the dye Sirius Red (Direct Red 80). Sirius Red is an anionic dye having sulfonic acid groups attached to its side chains. These sulfonic acid groups react with the side chain groups of the amino acids (proline, hydroxyproline, lysine and hydroxylysine) predominantly occurring in collagen, it being necessary for an intact collagen structure to be present.
# The model used for the assay design is the procedure described in B. J. Walsh et al., Analytical Biochemistry 203, 187-190 (1992) for the quantitative determination of collagen on the 96 well scale. […]
# After a 24 h adaptation phase for the NHDF, the cells are incubated (37° C., 5% CO2) for 48 h with the incubation solution and corresponding control solutions (solvent and blank). […] The absorption of the resultant dye solution can be determined photometrically at 540 nm.
# Thanks to the linear relationship between collagen content and the OD values arising from staining, the increase in OD is determined for qualitative assessment of the collagen synthesis boosting effect. To this end, the mean and standard deviations of the controls and the test samples are calculated and then a background or blank correction is made. […]
# The synergy index (SI) values of the ternary mixtures according to the invention were calculated according to Kull (literature: F. C. Kull et al, Applied Microbiology vol. 9, p. 538-541 (1961); D. C. Steinberg, Cosmetics & Toiletries vol. 115(11), 59-62 (2000) by means of the following equation. […]
# [1] = usage concentration 1.020 mg/ml
smiles,measurement,setting,value
"O=C1O[C@H]([C@@H](O)CO)C([O-])=C1OP(=O)([O-])[O-].[Na+].[Na+].[Na+] [Sodium ascorbyl phosphate (Bio1586), Sodium ascorbyl phosphate]","Collagen synthesis boost [%], relative to untreated control",[1],144.57%
"O=C1O[C@H]([C@@H](O)CO)C([O-])=C1OP(=O)([O-])[O-].O=C1O[C@H]([C@@H](O)CO)C([O-])=C1OP(=O)([O-])[O-].[Mg+2].[Mg+2].[Mg+2] [Magnesium ascorbyl phosphate (Bio172), Magnesium ascorbyl phosphate]","Collagen synthesis boost [%], relative to untreated control",usage concentration 0.362 mg/ml,66.97% and 67.44%
"O=C1O[C@H]([C@@H](O)CO)C([O-])=C1OP(=O)([O-])[O-].O=C1O[C@H]([C@@H](O)CO)C([O-])=C1OP(=O)([O-])[O-].[Mg+2].[Mg+2].[Mg+2] [Magnesium ascorbyl phosphate (Bio1300/1), Magnesium ascorbyl phosphate]","Collagen synthesis boost [%], relative to untreated control",[1],141.13%
